These results are taken from patent publication US20240398980A1, “NUCLEIC ACID-CONJUGATED POLYMERIC NANOPARTICLES AND METHODS OF USE” (The Brigham and Women's Hospital, Inc., priority 2021, published 2024).

The test system of data set [1] is interferon regulatory factor (IRF)3 activity. Briefly: IRF3 reporter activity in THP-1 Dual cells (QUANTI-Luc). The class given is cell-based, Human. The note with it: for IRF and NF-kB activation compared with 2.3cGAMP: THP-1 reporter cell line, FIG. 30. The protocol: (§1) In vitro evaluation of CDN-NP activity: Human monocyte THP-1 Dual™ cells, THP-1 Dual™ KO-STING cells, RAW-Lucia™ ISG cells and RAW-Lucia™ ISG KO-STING cells were seeded in 96-well plates at 1×10^5 cells per well and incubated with the CDN-NP or free CDN at CDN concentrations ranging from 0-500 nM. At 24 h post treatment, interferon regulatory factor (IRF)3 activity was examined using the QUANTI-Luc™ reagent (InvivoGen) and NF-κB activity (only THP-1 Dual™ cells) was determined using the QUANTI-Blue™ reagent (InvivoGen) according to the manufacturer's instructions.

For data set [2], the system named is IRF response. Briefly: IRF reporter response in RAW-Lucia ISG cells. The class given is cell-based, murine. How it is done: as §1
Data set [3] deals with bone-marrow derived macrophages (BMDMs). As to the kind of experiment: Primary immune cell activation, flow cytometry. The class given is cell-based, C57BL/6 mice. The protocol:
BMDC and BMDM isolation: The tibias and femurs of female wild type or goldenticket C57BL/6 mice (aged 8-12 weeks) were isolated and flushed to harvest bone marrow and to obtain a progenitor cell population. To generate BMDMs, 4-6×10^6 bone marrow cells were cultured in non-tissue culture treated T175 flasks with 25 mL of DMEM/F12 supplemented with 10% (v/v) FBS, 1% (v/v) P/S, 5% (v/v) GlutaMAX and recombinant murine macrophage-colony-stimulating factor (M-CSF, 20 ng/mL). The flasks were supplemented with additional medium on day 3 and day 6. To generate BMDCs, 2×10^6 bone marrow cells were added to non-tissue culture-treated petri dishes and cultured in 10 mL of RPMI-1640 supplemented with 10% (v/v) FBS, 1% (v/v) and recombinant murine granulocyte-macrophage colony-stimulating factor (GM-CSF, 20 ng/mL), 10 mL more of which was added on day 3. […]
Assessment of primary immune cell activation: BMDCs or BMDMs were seeded in 24-well plates at 2×10^5 cells per well and incubated with the CDN-NP or free CDN at equal CDN concentrations ranging from 1-100 nM. […] After 24 hours, the supernatant was removed and cells were then collected, washed, stained, fixed, and analyzed by flow cytometry. […] In addition, IFN-0, IL-6, and TNF-α were analyzed from the supernatant using a custom Legendplex™ panel (BioLegend) as per the manufacturer's instructions.
Background: In flow cytometry, cells or beads pass a laser one at a time.

The nature of data set [4]: Pharmacokinetics in plasma after i.v. administration (LC-MS-MS and fluorescence). The note with it: 15 min after i.v. The format is in vivo, C57BL/6 mice. How it is done: Pharmacokinetics of CDN-NPs: Non-tumor bearing 6-8-week-old female C57BL/6 mice were injected i.v. (100 μL per mouse) with fluorescent CDN-NPs and whole blood was collected 0.25, 0.5, 1, 3, 6, and 24 h post injection in Eppendorf tubes containing heparin though submandibular bleed (for early time points) or cardiac puncture (for late time points). Plasma was obtained by centrifugation for 20 mins at 10000×g. Fluorescent CDN-NPs were quantified using a 640 nm excitation and 680 emission wavelength by plate reader and CDN was also quantified by LC-MS/MS.

In data set [5] the test system is B16-F10 tumors. As to the kind of experiment: In vivo therapeutic efficacy, B16-F10 melanoma. Also noted: species or system mice. The note with it: B16-F10, 0.5 μg CDN i.v. x3, 4 d apart. The protocol: In vivo therapeutic efficacy: B16-F10, 4T1, and CT-26 cells were injected subcutaneously into the right flank of 6-8-week-old female mice (of the appropriate background for the cell type) in 100 μL HBSS at densities of 5×10^5, 1×10^6, and 1×10^6 cells/injection, respectively. Approximately 7 days post tumor inoculation (˜50 mm^3), mice were subjected to intravenous injection (100 μL) of free CDN or CDN-NP at a CDN dose of 0.5 μg. Mice were injected 3 times with treatments spaced 4 d apart. Groups receiving checkpoint blockade were injected intraperitoneally 24 h post systemic administration with 100 μg anti-PD-1 (clone RMP1.14, Bio X Cell). The tumor size was measured every other day via caliper measurements and the tumor volume calculated using the equation V=L×W×H×(π/6). Body weight was measured contemporaneously with tumor volume.

Data set [6] concerns immune cell populations in the TME, tdLN, and spleen. As to the kind of experiment: Immunophenotyping by flow cytometry in B16-F10 tumor-bearing mice. The format is in vivo, C57BL6/J mice. How it is done: Immunophenotyping analysis: Subcutaneous B16-F10 tumors were established in female C57BL6/J mice (6-8 weeks old), as previously described. The treatment groups were: PBS (untreated control), aPD-1 mAb, free CDN, free CDN with aPD-1 mAb, CDN-NPs, and CDN NPs with aPD-1 mAb. CDN formulations (free drug or NP, 0.5 μg CDN) were administered intravenously and aPD-1 mAb (100 μg) was administered intraperitoneally 24 h after CDN treatment. Dendritic cells and macrophages were assessed 48 h after treatment and T cells were analyzed 7 days post-treatment. Tumors were harvested, chopped, and digested in a solution of HBSS supplemented with collagenase I, II, and IV (100 ng/mL) and DNase I […] for 2 h at 37° C. TdLNs and spleens were harvested and mechanically dissociated. Single cell suspensions of tumors, tdLNs, and spleens were filtered through a 40 µm nylon cell strainer. Spleen and tumor cells were further treated with ACK Lysing Buffer (Gibco). Cells were washed, filtered through a 40 μm nylon cell strainer, and counted. For intracellular IFN-γ cytokine analysis, 1×10^6 cells were seeded in a 24-well plate in DMEM containing 10% (v/v) FBS and supplemented with PMA/ionomycin/Brefeldin A cocktail (BioLegend). After 4 h, the cells were washed and stained in 100 μL cell staining buffer (BioLegend). Intracellular staining was performed using an intracellular staining permeabilization wash buffer (BioLegend) The following anti-mouse antibodies were used for flow cytometry were purchased from BioLegend: CD45 APC-Cy7 (clone 30-F11), NK-1.1 BV710 (clone PK136), IFN-γ BV421 (clone XMG1.2), CD279 (PD-1) FITC (clone 29F.1A12), CD45 BV785 (clone 30-F11), CD11b BV421 (clone M1/70), Ly-6C APC-Cy7 (clone HK1.4), Ly-6G BV661 (clone 1A8), CD8a BV421 (clone 53-6.7), CD86 BV510 (clone GL-1), CD80 BV711 (clone 16-10A1), CD206 PE (clone C068C2), MHCII BV605 (clone M5/114.15.2), CD11c APC (clone N418), Siglec H PE (clone 551), and CD44 BV786 (clone IM7).
The following anti-mouse antibodies were purchased from BD Biosciences: CD3 BB700 (clone 17A2), CD4 BUV395 (clone GK1.5), CD8a BUV737 (clone 53-6.7), F4/80 BUV395 (clone T45-2342), CD103 BUV395 (clone M290), CD80 BUV737 (clone 16-10A1), ki67 BV510 (clone B56), CD69 BV605 (clone H1.2F3), and CD62L PE-CF594 (clone MEL-14). Live cells were gated using LIVE/DEAD™ (Thermo Fisher) aqua (cat. no. L34966), green (cat. no. L34970), or near-IR (cat. no. L34976). Stained cells were analyzed by flow cytometry using a BD LSRFortessa™ flow cytometer (BD Biosciences) and all data were analyzed using FlowJo software (FlowJo LLC).

Setting [7] is: tdLN, 7 d after single treatment.

The structures appear in SMILES notation.

Usually EC50 stands for the midpoint of the concentration-response curve. Consider `Nc1nc2c(ncn2[C@@H]2O[C@@H]3CO[P@@](=O)(S)O[C@H]4C[C@H](Oc5ccncn5)C[C@@H]4CO[P@@](=O)(S)O[C@@H]2[C@@H]3O)c(=O)[nH]1` [free CDN, 2-Amino-9-[(2R,5R,7R,8R,10R,12aR,14R,15aS,16R)-16-hydroxy-2,10-dioxido 14-(pyrimidin-4-yloxy)-2,10-disulfanyldecahydro-5,8 methanocyclopenta[1][1,3,6,9,11,2,10]pentaoxadiphosphacyclotetradecin-7-yl]-1,9-dihydro-6H-purin-6-one], for which the EC50 in data set [1] (THP-1 Dual cells, 24 h, read-out: EC50 IRF3 activation) was found to be 1150 nM. Also, the “IRF and NF-kB activation compared with 2.3cGAMP” value in data set [1] is “higher IRF and NF-kB activation than 2.3cGAMP”. Moreover, the EC50 in data set [2] was greater than 1000 nM. For the same compound, the “dose required to achieve the same degree of CD86 upregulation (15-fold)” value in data set [3] was 100 nM. In data set [4], the “CDN (nM) in plasma” value is recorded as less than 5 nM. Further, in data set [4] (listed as free CDNs), the “CDN (nM) in plasma” value is reported as less than 5 nM. The “tumor growth and survival” value in data set [5] is “only a modest suppression of tumor growth and no increase in survival”. Moreover, the “CD86 expression on DCs in the spleen” value in data set [6] (48 h after i.v., B16-F10) is 8.4±1.3%. In addition, in data set [6] (7 d, ex vivo restimulation), the “proportion of CD4+ T cells secreting IFN-γ in the TME” value came out at 4.0±1.0% and the “proportion of CD8+ T cells secreting IFN-γ in the TME” value worked out at 15.7±3.5%. Also, in data set [6] (setting [7]), the “CD4+ central memory T cells (TCM)” value worked out at 6.2±0.4% and the “CD4+ effector memory T cells (TEM)” value was 5.3±0.8%.
`CC(C)[C@H](NC(=O)CCCCCN1C(=O)C=CC1=O)C(=O)N[C@@H](C)C(=O)Nc1ccc(COC(=O)N(C)Cc2ccccc2C(=O)Nc2nc3c(ncn3[C@@H]3O[C@@H]4CO[P@@](=O)(S)O[C@H]5C[C@H](Oc6ccncn6)C[C@@H]5CO[P@@](=O)(S)O[C@@H]3[C@@H]4O)c(=O)[nH]2)cc1` [CDN-linker, 4-{[(2S)-2-{[(2S)-2-{[6-(2,5-Dioxo-2,5-dihydro-1H-pyrrol-1 yl)hexanoyl]amino}-3-methylbutanoyl]amino}propanoyl]amino}benzyl [2-({9[(2R,5R,7R,8R,10R,12aR,14R,15aS,16R)-16-hydroxy-2,10-dioxido-14-(pyrimidin-4-yloxy)-2,10-disulfanyldecahydro-5,8-methanocyclopenta[1][1,3,6,9,11,2,10]Pentaoxadiphosphacyclotetradecin-7-yl]-6-oxo-6,9-dihydro-1H-purin-2-yl}carbamoyl)benzyl]methylcarbamate]: the “IRF and NF-kB activation compared with 2.3cGAMP” value in data set [1] is “higher IRF and NF-kB activation than 2.3cGAMP”.
